One assay addresses T1, OR2W1 (Homo sapiens, UniProt Q9Y3N9).
T1 construct: expressed in transfected cells; host or cells: HEK293
T1 sequence (Q9Y3N9 1-320): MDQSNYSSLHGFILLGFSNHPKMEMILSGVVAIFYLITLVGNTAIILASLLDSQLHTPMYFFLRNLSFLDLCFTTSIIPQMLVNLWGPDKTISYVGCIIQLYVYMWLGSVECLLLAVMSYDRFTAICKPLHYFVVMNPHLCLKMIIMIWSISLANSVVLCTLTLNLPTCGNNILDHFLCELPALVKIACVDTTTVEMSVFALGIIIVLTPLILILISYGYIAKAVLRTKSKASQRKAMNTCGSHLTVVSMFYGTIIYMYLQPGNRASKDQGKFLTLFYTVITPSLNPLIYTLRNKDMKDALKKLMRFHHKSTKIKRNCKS
The experiment in a line: Luciferase reporter gene assay of OR2W1 expressing HEK293 cells. In kind it is cell-based. From the text: (§1) Based on the sequence information registered in GenEank, genes encoding 427 human olfactory receptors including variants were each cloned. Each gene was cloned by PCR using human genomic DNA female (G1521: Promega) as the template. Each gene amplified by PCR was recombined downstream of a Flag-Rho tag sequence on a pME18S vector.
(§2) A gene encoding human RTP1S was inserted into the EcoRI/XhoI site of a pME18S vector.
427 HEK293 cells differently expressing one of 427 human olfactory receptors were produced. Reaction solutions having compositions shown in Table 1 were prepared and were left to stand in a clean bench for 15 minutes. The reaction solutions were added to each well of a multi-well plate (384 or 96-well plate, BioCoat), and HEK293 cells were then seeded. In the 384-well plate, 4.4 μL of a reaction solution and 40 μL of HEK293 cells (20×10^4 cells/cm^2) were added. In the 96-well plate, 10 μL of a reaction solution and 90 μL of HEK293 cells (3×10^5 cells/cm^2) were added. The cells were cultured in an incubator maintained at 37° C. and 5% CO2 for 24 hours. As a control, cells not expressing an olfactory receptor (mock) were prepared.
The olfactory receptor expressed in HEK293 cells interact with endogenous cellular Gas to activate adenylate cyclase and thereby increases the intracellular cAMP level. The measurement of the response of cells to an odorant, test substance, or antagonist in the present invention was performed by a luciferase reporter gene assay monitoring the increase in the intracellular cAMP level as a light emission value derived from a firefly luciferase gene (fluc2P-CRE-hygro). A Renilla luciferase gene fused to downstream of a CMV promoter (hRluc-CMV) was simultaneously transfected and was used as an internal standard for calibrating the error in gene transfer efficiency or the number of cells. The luciferase activity was measured from 2.5 to 4 hours after stimulation with an odorant or a test substance with a Dual-Glo™ luciferase assay system (Promega), following user's manual thereof. The value fLuc/hRluc was calculated by dividing the light emission value derived from firefly luciferase by the light emission value derived from Renilla luciferase. “Fold increase” as an indicator of the responsiveness of an olfactory receptor to stimulation with a test substance, and “odor response” (%) as an indicator of the activity level of an antagonist to the olfactory receptor, were calculated according to the following formula: […]
X: fLuc/hRluc, induced by stimulation with a test substance alone, and
Y: fLuc/hRluc, without stimulation with a test substance.
L-Arginine and 1-histidine were used as test substances. […]
(A reporter such as luciferase makes a cellular process visible.)

Assay [1] can be described thus: Sensory examination: odor intensity (labeled magnitude scale) on simultaneous exposure to odorant and test substance. In kind it is in vivo, human. Particulars: test substance 10 mM in saline, ultrasonic nebulizer, LMS; for odor intensity of HCA used together with test substance: HCA 0.1 mM; for odor intensity of PEA used together with test substance: PEA 0.1 mM. As to the method:
Whether the odor of an odorant was enhanced or not by simultaneous exposure to the odorant and 1-arginine was investigated by comparing with exposure to the odorant alone. PEA or hexyl cinnamic aldehyde (HCA) was used as the odorant. The odorant was added at a final concentration of 0.1 mM to a saline aqueous solution with 1-arginine (10 mM) and a saline aqueous solution with 1-histidine (10 mM) as a control. The resulting solutions were sprayed to an examinee for inhaling using an ultrasonic nebulizer (NE-U07: OMRON Corporation, atomization particle diameter: 1 to 8 μm (80% of total volume particle diameter distribution)) with a spray amount of about 170 μL (for about 20 seconds) at most, and odor intensity was evaluated.
The odor intensity was evaluated according to the method of Green, et al, (Chemical senses, 1996, 21: 323-34) with the labeled magnitude scale (LMS) shown below. That is, assuming the full scale length was 100%, labels were set to the following positions: Barely detectable: 1.4%, Weak: 6.1%, Moderate: 17.2%, Strong: 35.4%, Very strong: 53.3%, Strongest imaginable: 100%.

Assay [2] concerns 427 human olfactory receptors. In words: Luciferase reporter gene assay of 427 human olfactory receptors expressed in HEK293 cells. The class given is cell-based. Conditions: test substance 10 mM.
Source text: as §1, §2
427 HEK293 cells differently expressing one of 427 human olfactory receptors were produced. Reaction solutions having compositions shown in Table 1 were prepared and were left to stand in a clean bench for 15 minutes. The reaction solutions were added to each well of a multi-well plate (384 or 96-well plate, BioCoat), and HEK293 cells were then seeded. […]
The olfactory receptor expressed in HEK293 cells interact with endogenous cellular Gas to activate adenylate cyclase and thereby increases the intracellular cAMP level. […] The luciferase activity was measured from 2.5 to 4 hours after stimulation with an odorant or a test substance with a Dual-Glo™ luciferase assay system (Promega), following user's manual thereof. The value fLuc/hRluc was calculated by dividing the light emission value derived from firefly luciferase by the light emission value derived from Renilla luciferase. […]

The nature of assay [3]: Sensory examination: PEA detection threshold value before and after nasal administration. Conditions: 10 mM in saline, nasal spray, human examinees, one minute after spraying. In kind it is in vivo. As to the method:
The action of 1-arginine, which is an OR2W1 selective ligand, on olfaction was evaluated by sensory examination. Three samples, saline (Otsuka Pharmaceutical Co., Ltd.), saline aqueous solution containing 10 mM 1-arginine, and saline aqueous solution containing 10 mM 1-histidine, were prepared and filled into nasal sprays (KT110-102, AS ONE Corporation). […] PEA aqueous solutions with 11 different concentrations from 0.001 to 100 WA were prepared as test solutions, and 3 mL of each of the solutions was respectively added to 20-mL glass vials (Maruemu Corporation).
The experiment was blinded to both an examiner and an examinee. The examiner set the spray spout in the nasal cavity of the examinee as deep as possible and sprayed once. The amount of liquid ejected thereby was about 100 to 200 μL. […] The concentration that gave a correct answer three consecutive times after answering an incorrect answer was determined as the detection threshold value. […] Before and after the nasal administration of a sample, detection threshold values of an examinee to PEA were measured. The rate of change in the threshold value was determined by calculating (threshold value concentration before sample nasal administration)/(threshold value concentration after sample nasal administration).

Experimental findings from patent US20190367963A1, “METHOD FOR SELECTING ODOR CONTROL SUBSTANCE” (KAO CORPORATION, priority 2017, published 2019) are described below.

The structures appear in SMILES notation.

Consider `CCCCCCC(C=O)=Cc1ccccc1` [HCA, 2-(phenylmethylidene)octanal], for which, at OR2W1, the “response of OR2W1 expressing cells” value is recorded as “did not respond”.
Consider `N[C@@H](Cc1c[nH]cn1)C(=O)O` [1-histidine, L-Histidine], for which, in assay [1], the “odor intensity of HCA used together with test substance” value is listed as “the effect of enhancing the odor intensity was not observed” and the “odor intensity of PEA used together with test substance” value was “the effect of enhancing the odor intensity was not observed”. Moreover, the “responses of 427 olfactory receptors” value in assay [2] was “did not respond”. Besides, in assay [3], the “PEA detection threshold value after nasal administration” value was “not observed”. In addition, the “response of OR2W1 expressing cells” value at OR2W1 is reported as “did not respond”.
Take `OCCc1ccccc1` [PEA, 2-phenylethanol]: the “response of OR2W1 expressing cells” value on OR2W1 is “responded”.
For `N=C(N)NCCC[C@H](N)C(=O)O` [1-arginine, L-Arginine], in assay [1], the “odor intensity of HCA used together with test substance” value is “enhanced in statistically siggificant manner” and the “odor intensity of PEA used together with test substance” value was “enhanced in statistically siggificant manner”. Also, the “responses of 427 olfactory receptors” value in assay [2] is listed as “no olfactory receptors other than OR2W1 responded”. The “PEA detection threshold value after nasal administration” value in assay [3] is reported as “decreased in statistically significant manner”. In addition, at OR2W1, the “response of OR2W1 expressing cells” value is “responded to 1-arginine concentration dependently”.
